Measurements reported in patent publication US20230167073A1 (Teijin Pharma Limited, priority 2020, published 2023).

Each compound was assayed against T1, Human TRPC6 (Homo sapiens, UniProt Q9Y210) (assay: Evaluation of TRPC6 channel inhibitory activity (1), FLIPR Calcium 5 Assay Kit, OAG stimulation (Compound Nos. 1-1293)). Details: Human TRPC6 stably-expressing cells, OAG 30 μM, FLIPR Calcium 5 Assay Kit; read-out: Inhibitory activity (pIC50 class) (converted).
T1 construct: expressed in transfected cells
T1 sequence (Q9Y210 1-931): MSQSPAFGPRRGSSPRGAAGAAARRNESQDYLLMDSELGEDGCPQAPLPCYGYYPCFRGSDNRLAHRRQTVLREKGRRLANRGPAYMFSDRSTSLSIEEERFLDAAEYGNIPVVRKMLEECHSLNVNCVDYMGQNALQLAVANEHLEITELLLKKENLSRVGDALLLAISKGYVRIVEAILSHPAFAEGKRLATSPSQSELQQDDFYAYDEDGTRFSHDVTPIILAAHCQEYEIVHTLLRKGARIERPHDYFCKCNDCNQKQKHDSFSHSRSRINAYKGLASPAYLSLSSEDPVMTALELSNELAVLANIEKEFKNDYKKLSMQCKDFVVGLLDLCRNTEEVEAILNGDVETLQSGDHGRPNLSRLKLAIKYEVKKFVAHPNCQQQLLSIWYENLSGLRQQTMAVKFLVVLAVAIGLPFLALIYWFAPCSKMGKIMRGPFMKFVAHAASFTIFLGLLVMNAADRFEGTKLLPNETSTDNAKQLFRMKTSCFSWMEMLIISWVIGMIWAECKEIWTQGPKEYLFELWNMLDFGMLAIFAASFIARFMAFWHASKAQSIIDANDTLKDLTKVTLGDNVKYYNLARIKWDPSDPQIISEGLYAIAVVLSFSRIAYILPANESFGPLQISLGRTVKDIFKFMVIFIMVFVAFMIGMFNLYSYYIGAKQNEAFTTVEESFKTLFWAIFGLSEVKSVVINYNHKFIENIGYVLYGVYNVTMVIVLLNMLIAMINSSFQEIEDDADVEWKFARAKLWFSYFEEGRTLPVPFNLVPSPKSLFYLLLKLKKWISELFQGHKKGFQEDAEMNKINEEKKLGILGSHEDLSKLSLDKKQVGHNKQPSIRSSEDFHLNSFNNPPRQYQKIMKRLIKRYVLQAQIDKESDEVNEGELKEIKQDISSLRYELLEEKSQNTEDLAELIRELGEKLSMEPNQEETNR
Assay type: cell-based
Outline: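 TRPC6 (human) stable cells, 24 h culture; Ca5 no-wash dye + probenecid 30 min; cpd 20 min; OAG 30 μM final; ΔF (pre-cpd min to post-OAG max); 0%/100% = no cpd / no cpd + no OAG; 4PL → pIC50, binned +/++/+++.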

Row | Compound | IC50 [µM]
1 | N#Cc1ccc(-c2ccc(CCN)cc2)c(Oc2cnnc(-c3ccccc3F)c2)c1 [Compound 116, 4-[4-(2-aminoethyl)phenyl]-3-[6-(2-fluorophenyl)pyridazin-4-yl]oxybenzonitrile] | 0.01 to 1
2 | N#Cc1ccc(-c2ccc(CCN)cc2)c(Oc2cnnc(-c3ccccc3OC(F)(F)F)c2)c1 [Compound 117, 4-[4-(2-aminoethyl)phenyl]-3-[6-[2-(trifluoromethoxy)phenyl]pyridazin-4-yl]oxybenzonitrile] | 0.01 to 1
3 | COc1ccccc1-c1cc(Oc2cc(C#N)ccc2-c2ccc(CCN)cc2)cnn1 [Compound 118, 4-[4-(2-aminoethyl)phenyl]-3-[6-(2-methoxypheny)pyridazin-4-yl]oxybenzonitrile] | 0.01 to 1
4 | CC(=O)Nc1ccccc1-c1cc(Oc2cc(C#N)ccc2-c2ccc(CCN)cc2)cnn1 [Compound 119, N-[2-[5-[2-[4-(2-aminoethyl)phenyl]-5-cyanophenoxy]pyridazin-3-yl]phenyl]acetamide] | > 1
5 | COC(=O)c1ccccc1-c1cc(Oc2cc(C#N)ccc2-c2ccc(CCN)cc2)cnn1 [Compound 120, methyl 2-[5-[2-[4-(2-aminoethyl)phenyl]-5-cyanophenoxy]pyridazin-3-yl]benzoate] | < 0.01
6 | N#Cc1ccc(-c2ccc(CCN)cc2)c(Oc2cnnc(-c3ccccc3C(=O)O)c2)c1 [Compound 121, 2-[5-[2-[4-(2-aminoethyl)phenyl]-5-cyanophenoxy]pyridazin-3-yl]benzoic acid] | > 1
7 | N#Cc1ccc(-c2ccc(C(CN)C(F)(F)F)cc2)c(Oc2cnnc(N3CCOCC3)c2)c1 (stereo not shown) [Compound 122, 4-[4-(3-amino-1,1,1-trifluoropropan-2-yl)phenyl]-3-(6-morpholin-4-ylpyridazin-4-yl)oxybenzonitrile] | 0.01 to 1
8 | N#Cc1ccc(-c2ccc(CCN)cc2)c(Oc2cnnc(O[C@H]3CCC[C@H]3O)c2)c1 [Compound 123, 4-[4-(2-aminoethyl)phenyl]-3-[6-[(1S,2R)-2-hydroxycyclopentyl]oxypyridazin-4-yl]oxybenzonitrile] | 0.01 to 1
9 | N#Cc1ccc(-c2ccc(CCN)cc2)c(Oc2cnnc(O[C@H]3CCC[C@@H]3O)c2)c1 [Compound 124, 4-[4-(2-aminoethyl)phenyl]-3[6-[(1S,2S)-2-hydroxycyclopentyl]oxypyridazin-4-yl]oxybenzonitrile] | 0.01 to 1
10 | N#Cc1ccc(-c2ccc(CCN)cc2)c(Oc2cnnc(OC3CCOC3)c2)c1 (stereo not shown) [Compound 125, 4-[4-(2-aminoethyl)phenyl]-3-[6-(oxolan-3-yloxy)pyridazin-4-yl]oxybenzonitrile] | 0.01 to 1
11 | CC(C)(C)CCOc1cc(Oc2cc(C#N)ccc2-c2ccc(CCN)cc2)cnn1 [Compound 126, 4-[4-(2-aminoethyl)phenyl]-3-[6-(3,3-dimethylbutoxy)pyridazin-4-yl]oxybenzonitrile] | > 1
12 | CC(C)(C)OCCOc1cc(Oc2cc(C#N)ccc2-c2ccc(CCN)cc2)cnn1 [Compound 127, 4-[4-(2-aminoethyl)phenyl]-3-[6-[2-[(2-methylpropan-2-yl)oxy]ethoxy]pyridazin-4-yl]oxybenzonitrile] | > 1
13 | Cc1cc(N2CCOCC2)cc(Oc2cc(C#N)ccc2-c2ccc(CCN)cc2)n1 [Compound 128, 4-[4-(2-aminoethyl)phenyl]-3-(6-methyl-4-morpholin-4-ylpyridin-2-yl)oxybenzonitrile] | > 1
14 | Cc1nc(Oc2cc(C#N)ccc2-c2nc(C)c(C(O)CN)s2)cc(N2CCOCC2)n1 (stereo not shown) [Compound 129, 4-[5-(2-amino-1-hydroxyethyl)-4-methyl-1,3-thiazol-2-yl]-3-(2-methyl-6-morpholin-4-ylpyrimidin-4-yl)oxybenzonitrile] | > 1
15 | Cc1nc(Oc2cc(C#N)ccc2-c2ccc(CCN)cc2)cc(N2CCC[C@@H]2C#N)n1 [Compound 130, (2R)-1-[6-[2-[4-(2-aminoethyl)phenyl]-5-cyanophenoxy]-2-methylpyrimidin-4-yl]pyrrolidine-2-carbonitrile] | < 0.01
16 | Cc1nc(Oc2cc(C#N)ccc2-c2ccc3c(c2)CC(N)C3=O)cc(N2CCOCC2)n1 (stereo not shown) [Compound 131, 4-(2-Amino-1-oxo-2,3-dihydroinden-5-yl)-3-(2-methyl-6-morpholin-4-ylpyrimidin-4-yl)oxybenzonitrile] | > 1

Row | Compound | IC50 [µM]
17 | Cc1nc(Oc2cc(C#N)ccc2-c2ccc3c(c2)CCC3N)cc(N2CCOCC2)n1 (stereo not shown) [Compound 132, 4-(1-amino-2,3-dihydro-1H-inden-5-yl)-3-(2-methyl-6-morpholin-4-ylpyrimidin-4-yl)oxybenzonitrile] | 0.01 to 1
18 | Cc1nc(Oc2cc(C#N)ccc2-c2ccc(C(CN)C(F)F)cc2)cc(N2CCOCC2)n1 (stereo not shown) [Compound 133, 4-[4-(3-amino-1,1-difluoropropan-2-yl)phenyl]-3-(2-methyl-6-morpholin-4-ylpyrimidin-4-yl)oxybenzonitrile] | < 0.01
19 | Cc1nc(Oc2cc(C#N)ccc2-c2ccc3c(c2)CC(N)C3O)cc(N2CCOCC2)n1 (stereo not shown) [Compound 134, 4-(2-amino-1-hydroxy-2,3-dihydro-1H-inden-5-yl)-3-(2-methyl-6-morpholin-4-ylpyrimidin-4-yl)oxybenzonitrile] | 0.01 to 1
20 | N#Cc1ccc(-n2ccc(CN)n2)c(Oc2cnnc(-c3ccccc3)c2)c1 [Compound 135, 4-[3-(aminomethyl)pyrazol-1-yl]-3-(6-phenylpyridazin-4-yl)oxybenzonitrile] | > 1
21 | Cc1nc(Oc2cc(C#N)ccc2-n2cc(C(O)CN)cn2)cc(N2CCOCC2)n1 (stereo not shown) [Compound 136, 4-[4-(2-amino-1-hydroxyethyl)pyrazol-1-yl]-3-(2-methyl-6-morpholin-4-ylpyrimidin-4-yl)oxybenzonitrile] | 0.01 to 1
22 | N#Cc1ccc(-c2ccc(CCN)cc2)c(Oc2cnnc(C3CCCC3)c2)c1 [Compound 137, 4-[4-(2-aminoethyl)phenyl]-3-(6-cyclopentylpyridazin-4-yl)oxybenzonitrile] | < 0.01
23 | Cc1cc(Oc2cc(C#N)ccc2-c2ccc(CCN)cc2)cc(N2CCOCC2)n1 [Compound 138, 4-[4-(2-aminoethyl)phenyl]-3-(2-methyl-6-morpholin-4-ylpyridin-4-yl)oxybenzonitrile] | < 0.01
24 | N#Cc1ccc(-c2ccc(C(CN)C(F)F)cc2)c(Oc2cnnc(N3CCOCC3)c2)c1 (stereo not shown) [Compound 139, 4-[4-(3-amino-1,1-difluoropropan-2-yl)phenyl]-3-(6-morpholin-4 ylpyridazin-4-yl)oxybenzonitrile] | 0.01 to 1
25 | Cc1nc(Oc2cc(C#N)ccc2-n2cc(C(O)CN)cn2)cc(-c2ccc(F)cc2)n1 (stereo not shown) [Compound 140, 4-[4-(2-amino-1-hydroxyethyl)pyrazol-1-yl]-3-[6-(4-fluorophenyl)-2-methylpyrimidin-4-yl]oxybenzonitrile] | 0.01 to 1
26 | Cc1nc(Oc2cc(C#N)ccc2-n2cc(C(O)CN)cn2)cc(-c2cccc(F)c2)n1 (stereo not shown) [Compound 141, 4-[4-(2-amino-1-hydroxyethyl)pyrazol-1-yl]-3-[6-(3-fluorophenyl)-2-methylpyrimidin-4-yl]oxybenzonitrile] | 0.01 to 1
27 | Cc1ccc(-c2cc(Oc3cc(C#N)ccc3-n3cc(C(O)CN)cn3)nc(C)n2)cc1 (stereo not shown) [Compound 142, 4-[4-(2-amino-1-hydroxyethyl)pyrazol-1-yl]-3-[2-methyl-6-(4-methylphenyl)pyrimidin-4-yl]oxybenzonitrile] | 0.01 to 1
28 | Cc1nc(Oc2cc(C#N)ccc2-c2nc(C)c(CN(C)C)s2)cc(-c2ccccc2)n1 [Compound 143, 4-[5-[(dimethylamino)methyl]-4-methyl-1,3-thiazol-2-yl]-3-(2-methyl-6-phenylpyrimidin-4-yl)oxybenzonitrile] | > 1
29 | Cc1nc(Oc2cc(C#N)ccc2-n2ccc(C(O)CN)n2)cc(N2CCOCC2)n1 (stereo not shown) [Compound 144, 4-[3-(2-amino-1-hydroxyethyl)pyrazol-1-yl]-3-(2-methyl-6-morpholin-4-ylpyrimidin-4-yl)oxybenzonitrile] | 0.01 to 1
30 | N#Cc1ccc(-c2ccc(CCN)cc2)c(Oc2cc(N3CCOCC3)cnn2)c1 [Compound 145, 4-[4-(2-aminoethyl)phenyl]-3-(5-morpholin-4-ylpyridazin-3-yl)oxybenzonitrile] | 0.01 to 1
31 | Cc1nc(Oc2cc(C#N)ccc2-n2cc(C(=O)CN)cn2)cc(-c2ccccc2)n1 [Compound 146, 4-[4-(2-aminoacetyl)pyrazol-1-yl]-3-(2-methyl-6-phenylpyrimidin-4-yl)oxybenzonitrile] | > 1
